One series concerns Lucilia cuprina. Description: Lucilia cuprina test. Conditions: application rate 100 ppm, L1 larvae, kill after 2 days. Type of series: in vivo. A digest of the protocol: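 About 20 L1 larvae were placed in vessels of minced horsemeat containing compound, formulated in dimethyl sulfoxide and diluted with water to the test concentration. Kill (%) was scored after 2 days; 100% means all larvae dead, 0% none.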

The test system of another series is Phaedon cochleariae. Description: Phaedon cochleariae spray test. Type of series: in vivo. To be noted: larvae on Chinese cabbage leaf discs, after 7 days. The method, then: Solvent: 78.0 parts by weight of acetone • • 1.5 parts by weight of dimethylformamide Emulsifier: alkylaryl polyglycol ether […] To produce further test concentrations, the formulation is diluted with emulsifier-containing water. Discs of Chinese cabbage leaves (Brassica pekinensis) are sprayed with an active ingredient formulation of the desired concentration and, after drying, populated with larvae of the mustard beetle (Phaedon cochleariae).

In the next series the test system is Rhipicephalus sanguineus. Description: Rhipicephalus sanguineus in vitro contact test with adult brown dog ticks. Type of series: in vivo. Conditions: after 48 h, dead or moribund ticks. The method, then:
After the solvent has evaporated off, the tubes are populated with 5-10 adult dog ticks (Rhipicephalus sanguineus), sealed with a perforated plastic lid and incubated in a horizontal position in the dark at room temperature and ambient humidity. After 48 h, efficacy is determined. To this end, the ticks are knocked to the base of the tube and incubated on a hotplate at 45-50° C. for not more than 5 min. Ticks which remain motionless on the base or move in such an uncoordinated manner that they are unable to deliberately avoid the heat by climbing upwards are considered to be dead or moribund.

In the next series the test system is Spodoptera frugiperda. Description: Spodoptera frugiperda spray test. Type of series: in vivo. Conditions: caterpillars on maize leaf discs, after 7 days. The method, then: Solvent: 78.0 parts by weight of acetone • • 1.5 parts by weight of dimethylformamide Emulsifier: alkylaryl polyglycol ether […] To produce further test concentrations, the formulation is diluted with emulsifier-containing water. Leaf discs of maize (Zea mays) are sprayed with an active compound formulation of the desired concentration and, after drying, populated with caterpillars of the armyworm (Spodoptera frugiperda).

The subject of the next series is Boophilus microplus. Description: Boophilus microplus injection test. Type of series: in vivo. Conditions: application rate 20 μg/animal, after 7 days, laying of fertile eggs. As for the experimental part:
Solvent: dimethyl sulfoxide […] The animals are transferred into dishes and kept in a climate-controlled room. Efficacy is assessed after 7 days by laying of fertile eggs. Eggs which are not visibly fertile are stored in a climate-controlled cabinet until the larvae hatch after about 42 days.

Series [1] has as its system Ctenocephalides felis. Kind of series: Ctenocephalides felis oral test. Type of series: in vivo. To be noted: application rate 100 ppm in citrated cattle blood, kill after 2 days. The source says: Solvent: dimethyl sulfoxide […] Dilution with citrated cattle blood gives the desired concentration. About 20 unfed adult cat fleas (Ctenocephalides felis) are placed into a chamber which is closed at the top and bottom with gauze. A metal cylinder whose bottom end is closed with parafilm is placed onto the chamber. The cylinder contains the blood/active ingredient formulation, which can be imbibed by the fleas through the parafilm membrane.

Series [2] has as its system Ctenocephalides felis. Description: Ctenocephalides felis in vitro contact test with adult cat fleas. Type of series: in vivo. To be noted: application rate 5 μg/cm^2 (500 g/ha), after 48 h, dead or moribund fleas. The method, then:
After the solvent has evaporated off, the tubes are populated with 5-10 adult cat fleas (Ctenocephalides felis), sealed with a perforated plastic lid and incubated in a horizontal position at room temperature and ambient humidity. After 48 h, efficacy is determined. To this end, the tubes are stood upright and the fleas are knocked to the base of the tube. Fleas which remain motionless at the base or move in an uncoordinated manner are considered to be dead or moribund.

The subject of the next series is Musca domestica. Description: Musca domestica test. Type of series: in vivo. To be noted: application rate 100 ppm, adult houseflies, kill after 2 days. Summed up:
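Compound dissolved in DMSO (10 mg per 0.5 ml), diluted with water to test concentration and applied to a sugar-solution sponge. Vessels held 10 adult houseflies; percent kill scored after 2 days (100% = all dead).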

Series [3] is described as follows: logP determination by HPLC on reversed-phase column (EEC Directive 79/831 Annex V.A8). Type of series: physicochemical.
In the next series the test system is Tetranychus urticae. Kind of series: Tetranychus urticae spray test, OP-resistant. Conditions: all stages on bean leaf discs, after 6 days. Type of series: in vivo. As for the experimental part: Solvent: 78.0 parts by weight of acetone • • 1.5 parts by weight of dimethylformamide Emulsifier: alkylaryl polyglycol ether […] To produce further test concentrations, the formulation is diluted with emulsifier-containing water. Discs of bean leaves (Phaseolus vulgaris) infested with all stages of the greenhouse red spider mite (Tetranychus urticae) are sprayed with an active ingredient formulation of the desired concentration.

The subject of series [4] is cattle ticks (Boophilus microplus) Parkhurst strain, SP-resistant. Kind of series: Boophilus microplus dip test. Type of series: in vivo. To be noted: application rate 100 ppm, after 7 days, laying of fertile eggs. As for the experimental part: Test animals: cattle ticks (Boophilus microplus) Parkhurst strain, SP-resistant
Solvent: dimethyl sulfoxide
10 mg of active ingredient are dissolved in 0.5 ml of dimethyl sulfoxide. To produce a suitable formulation, the active ingredient solution is diluted with water to the concentration desired in each case.
This active ingredient formulation is pipetted into tubes. 8-10 engorged adult female cattle ticks (Boophilus microplus) are transferred into a further tube with holes. The tube is immersed into the active ingredient formulation, and all the ticks are completely wetted. After the liquid has run out, the ticks are transferred on filter disks into plastic dishes and stored in a climate-controlled room.
Efficacy is assessed after 7 days by laying of fertile eggs. Eggs which are not visibly fertile are stored in a climate-controlled cabinet until the larvae hatch after about 42 days. An efficacy of 100% means that none of the ticks has laid any fertile eggs; 0% means that all the eggs are fertile.

[5] abbreviates: application rate 5 μg/cm^2 (500 g/ha).
Where [6] appears, read: Table 1, HPLC C18, acetonitrile/water with formic acid.

`O=C(Nc1ccc(F)c(-c2cnn(-c3c(Br)cc(C(F)(C(F)(F)F)C(F)(F)F)cc3C(F)(F)F)c2)c1)c1cocn1` [Example 2-14]: the efficacy in the series with Lucilia cuprina came to 90%; with Phaedon cochleariae (application rate 100 g/ha) it was 100%; in the series on Rhipicephalus sanguineus (setting [5]), 80%; with Spodoptera frugiperda (application rate 100 g/ha) it was 100%; in the series with Boophilus microplus it was 100%; in the series with Ctenocephalides felis [1] it was 100%. For the same molecule, the efficacy in the series on Ctenocephalides felis [2] amounted to 100%; in the series with Musca domestica, 90%.
Consider `Cc1cc(C(F)(C(F)(F)F)C(F)(F)F)cc(C)c1-n1cc(-c2ccc(Cl)c(NC(=O)c3ccc(F)cc3)c2)cn1` [Example 4, N-[2-chloro-5-[1-[2,6-dimethyl-4-[1,2,2,2-tetrafluoro-1-(trifluoromethyl)ethyl]phenyl]pyrazol-4-yl]phenyl]-4-fluorobenzamide], for which the values for the lgP entry in series [3] (setting [6]) and in series [3] (synthesis example) were “lgP 5.57” and 5.57, respectively. For the same molecule, the efficacy in the series on Tetranychus urticae (application rate 100 g/ha) is 100%; with Tetranychus urticae (application rate 500 g/ha) it was 90%; in the series with Lucilia cuprina, 100%; in the series on Phaedon cochleariae (application rate 500 g/ha), 100%; with Rhipicephalus sanguineus (setting [5]) it was 100%; with Spodoptera frugiperda (application rate 100 g/ha), 100%. In addition, the efficacy in the series with Spodoptera frugiperda (application rate 500 g/ha), with Boophilus microplus and with Ctenocephalides felis [1] was 100% throughout.
As to `Cc1cc(C(F)(C(F)(F)F)C(F)(F)F)cc(C)c1-n1cc(-c2ccc(F)c(NC(=O)c3ccc(F)cc3)c2)cn1` [Example 5], the lgP entry in series [3] (setting [6]) is reported as “lgP 5.07”. Moreover, the efficacy with Tetranychus urticae (application rate 100 g/ha) came out at 100%; in the series with Tetranychus urticae (application rate 500 g/ha), 100%; in the series with Lucilia cuprina, 100%; with Phaedon cochleariae (application rate 500 g/ha) it was 100%; in the series on Rhipicephalus sanguineus (setting [5]), 80%; with Spodoptera frugiperda (application rate 100 g/ha), 100%. Besides, the efficacy with Spodoptera frugiperda (application rate 500 g/ha) is reported as 100%; in the series with Boophilus microplus it was 100%; with Ctenocephalides felis [1], 90%; in the series on Musca domestica, 80%.
In the case of `Cc1cc(C(F)(C(F)(F)F)C(F)(F)F)cc(C)c1-n1cc(-c2ccc(F)c(NC(=O)c3ccncc3)c2)cn1` [Example 6], the lgP result in series [3] (setting [6]) is reported as “lgP 4.04”. Moreover, the efficacy in the series on Tetranychus urticae (application rate 100 g/ha), with Lucilia cuprina, with Phaedon cochleariae (application rate 100 g/ha), with Rhipicephalus sanguineus (application rate 1 μg/cm^2 (100 g/ha)), with Spodoptera frugiperda (application rate 100 g/ha) and in the series with Boophilus microplus was 100% in each case. Also, the efficacy in the series on Ctenocephalides felis [1], in the series with Ctenocephalides felis [2] and in the series on Musca domestica was 100% each time.
`Cc1cc(C(F)(C(F)(F)F)C(F)(F)F)cc(C)c1-n1cc(-c2ccc(F)c(NC(=O)c3ccc(F)cc3)c2F)cn1` [Example 7]: the lgP result in [3] (setting [6]) is listed as “lgP 4.84”. Also, the efficacy is reported as 100% with Tetranychus urticae (application rate 100 g/ha); 80% in the series on Lucilia cuprina; 100% with Phaedon cochleariae (application rate 100 g/ha); 80% in the series with Rhipicephalus sanguineus (setting [5]); 83% in the series on Spodoptera frugiperda (application rate 100 g/ha); 100% with Boophilus microplus. This molecule showed an efficacy in the series with Ctenocephalides felis [2] of 100%.
Regarding `Cc1cc(C(F)(C(F)(F)F)C(F)(F)F)cc(C)c1-n1cc(-c2cnc(Cl)c(NC(=O)c3ccc(F)cc3)c2)cn1` [Example 11], the lgP entry in series [3] (setting [6]) is listed as “lgP 5.14”. For the same molecule, the efficacy with Tetranychus urticae (application rate 100 g/ha) came out at 90%; with Lucilia cuprina it was 100%; with Phaedon cochleariae (application rate 100 g/ha) it was 100%; in the series on Rhipicephalus sanguineus (setting [5]), 80%; in the series on Spodoptera frugiperda (application rate 100 g/ha), 100%; with Boophilus microplus, 100%. Also, the efficacy with Ctenocephalides felis [1] and with Musca domestica was 100% in each case.
With `Cc1cc(C(F)(C(F)(F)F)C(F)(F)F)cc(C)c1-n1cc(-c2cnc(Cl)c(NC(=O)c3ccncc3)c2)cn1` [Example 12], the lgP result in [3] (setting [6]) is recorded as “lgP 3.97”. The efficacy in the series on Tetranychus urticae (application rate 100 g/ha) is recorded as 100%; with Lucilia cuprina it was 90%; in the series with Phaedon cochleariae (application rate 100 g/ha), 100%; in the series with Rhipicephalus sanguineus (setting [5]), 80%; with Spodoptera frugiperda (application rate 100 g/ha) it was 100%; in the series on Boophilus microplus, 100%. The efficacy with Ctenocephalides felis [1], in the series on Ctenocephalides felis [2] and in the series with Musca domestica was 100% throughout.
On to `Cc1cc(C(F)(C(F)(F)F)C(F)(F)F)cc(C)c1-n1cc(-c2ccc(F)c(NC(=O)c3ccncn3)c2)cn1` [Example 16], for which the lgP entry in series [3] (setting [6]) is “lgP 5.04”. The efficacy is recorded as 95% with Lucilia cuprina; 100% in the series with Phaedon cochleariae (application rate 100 g/ha); 80% with Rhipicephalus sanguineus (setting [5]); 100% with Spodoptera frugiperda (application rate 100 g/ha); 100% with Boophilus microplus; 100% in the series on Ctenocephalides felis [1]. Further, in the series on Musca domestica, the efficacy was 100%.
For the molecule `Cc1cc(C(F)(C(F)(F)F)C(F)(F)F)cc(C(F)(F)F)c1-n1cc(-c2ccc(F)c(NC(=O)c3ccsc3)c2)cn1` [Example 31], the efficacy with Tetranychus urticae (application rate 100 g/ha), in the series on Lucilia cuprina, in the series with Phaedon cochleariae (application rate 100 g/ha), in the series with Spodoptera frugiperda (application rate 100 g/ha), with Boophilus microplus and in the series on Ctenocephalides felis [1] was 100% in each case. In addition, the efficacy in the series on Musca domestica came to 100%; in series [4], 90%.
Regarding `Cc1cc(C(F)(C(F)(F)F)C(F)(F)F)cc(C(F)(F)F)c1-n1cc(-c2ccc(F)c(NC(=O)c3ccc(C#N)cc3)c2)cn1` [Example 33], the efficacy in the series with Tetranychus urticae (application rate 100 g/ha) came to 90%; in the series on Lucilia cuprina it was 100%; in the series on Phaedon cochleariae (application rate 100 g/ha) it was 100%; with Rhipicephalus sanguineus (setting [5]), 80%; with Spodoptera frugiperda (application rate 100 g/ha) it was 100%; in the series on Boophilus microplus, 100%. Besides, the efficacy came out at 100% with Ctenocephalides felis [1], 100% in the series on Ctenocephalides felis [2] and 90% in the series on Musca domestica.
Consider `Cc1cc(C(F)(C(F)(F)F)C(F)(F)F)cc(C(F)(F)F)c1-n1cc(-c2ccc(F)c(NC(=O)c3ccncc3)c2)cn1` [Example 50], for which the efficacy with Tetranychus urticae (application rate 100 g/ha) is recorded as 100%; in the series on Lucilia cuprina it was 100%; in the series on Phaedon cochleariae (application rate 100 g/ha), 100%; with Rhipicephalus sanguineus (setting [5]), 80%; in the series on Spodoptera frugiperda (application rate 100 g/ha) it was 100%; in the series on Boophilus microplus, 100%. For the same molecule, the efficacy in the series with Ctenocephalides felis [1], in the series with Ctenocephalides felis [2] and with Musca domestica was 100% throughout.

The values above are taken from patent US10202351B2, “Pyrazolyl derivatives as pest control agents” (BAYER ANIMAL HEALTH GMBH, priority 2015, dated 2019).
